The experiment deals with CNS nicotinic receptors. As to the kind of experiment: Binding to relevant receptor sites. The settings on record: free base used to prepare the salt forms, stated in words only. The procedure: Receptor binding constants provide a measure of the ability of the compound to bind to half of the relevant receptor sites of certain brain cells of the patient. See, Cheng, et al., Biochem. Pharmacol. 22:3099 (1973). The (2S)-(4E)-N-methyl-5-[3-(5-isopropoxypyridin)yl]-4-penten-2-amine compound used to prepare the salt forms has extremely high affinity for the relevant receptors, with a binding affinity in the low nM range.
Binding of the compounds to relevant receptor sites was determined in accordance with the techniques described in U.S. Pat. No. 6,953,855 to Mazurov et al. Inhibition constants (Ki values), reported in nM, were calculated from the IC50 values using the method of Cheng et al., Biochem, Pharmacol. 22:3099 (1973).

One compound from US8461344B2, “Polymorph forms of (2S)-(4E)-N-methyl-5-[3-(5-isopropdxypyridin)yl]-4-penten-2-amine” (Targacept, Inc., priority 2006, dated 2013) can be followed below.

Take `CN[C@@H](C)C/C=C/c1cncc(OC(C)C)c1` [(2S)-(4E)-N-methyl-5-[3-(5-isopropoxypyridin)yl]-4-penten-2-amine]: the binding affinity result is “low nM range”.
